The target of series [1] is T1, Leukotriene D4 receptor (Cavia porcellus, UniProt Q2NNR5).
T1 construct: As a receptor sample, a lung cell membrane fraction from guinea pigs was used; from tissue; host or cells: lung membrane fraction of Hartley male guinea pigs
T1 sequence (Q2NNR5 1-340): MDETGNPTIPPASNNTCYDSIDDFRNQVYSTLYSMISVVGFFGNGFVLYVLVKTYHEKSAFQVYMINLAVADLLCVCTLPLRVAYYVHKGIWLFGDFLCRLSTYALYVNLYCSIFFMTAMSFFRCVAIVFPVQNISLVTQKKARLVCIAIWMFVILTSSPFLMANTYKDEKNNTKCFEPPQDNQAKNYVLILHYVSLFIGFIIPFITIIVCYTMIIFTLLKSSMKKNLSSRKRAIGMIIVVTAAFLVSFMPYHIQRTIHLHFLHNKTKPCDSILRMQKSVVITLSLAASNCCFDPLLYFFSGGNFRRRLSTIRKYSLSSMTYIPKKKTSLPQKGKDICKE
Nature of the series: Leukotriene D4 receptor binding test. The following applies: binding inhibition constant (Ki) vs [3H] LTD4 0.2 nM; lung cell membrane fraction from guinea pigs; 25° C. for 30 minutes; read-out: pKi value (converted). On the procedure: Leukotriene D4 Receptor Binding Test
As a receptor sample, a lung cell membrane fraction from guinea pigs was used. Preparation of the membrane fraction was carried out according to the method of Ahn et al. (Eur. J. Pharmacol., 127, 153-155 (1986)). Lungs of Hartley male guinea pigs (400 to 500 g body weight, Nippon SLC Co.) were extracted, and perfused with a physiological saline, and then, adding 10 mM of PIPES, 10 mM of MgCl2 and 10 mM of CaCl2 buffer (pH 7.5) to the lung tissue and the mixture was homogenized. This homogenate was centrifuged at 70,000 xg for 10 minutes to obtain a membrane fraction.
Leukotriene D4 (LTD4) recepter binding test was carried out according to the method of Aharony, et al. (J. Pharmacol. Expl.Ther., 243, 921-926 (1987)). To 0.42 mg of the receptor sample were added 10 mM of PIPES, 10 mM of MgCl2 and 10 mM of CaCl2 buffer (pH 7.5) to make the total amount of 480 μl, and 10 μl of [^3H] LTD4 (NEN Life Science Products Co.) and 10 μl of a Test compound in dimethylsulfoxide were added to the mixture, and the resulting mixture was incubated at 25° C. for 30 minutes. The mixtures thus incubated were filtered through a glass fiber filter (Whatman Co., GF/C) using cell harvester (Brandel Co., M-30R). The filter were washed with 10 mM of Tris. and 100 mM of NaCl buffer (pH 7.5), and 5 ml of a liquid scintillator (NACALAI TESQUE INC., clearsol I), and radioactivity was measured by a liquid scintillation analyzer (Packard Co., 2000CA). When a dissociation constant (Kd) of LTD4 was to be obtained, [^3H] LTD4 with 0.03 to 0.5 nM was used, and 1 μM of non-radioactive LTD4 was added. When a binding inhibition constant (Ki) of the Test compound is to be meaured, [^3H] LTD4 with 0.2 nM was used. Kd and Ki are calculated according to the method of Bennett et al. (Neurotransmitter Receptor Binding, 2nd ed., edited by H. I. Yamamura et al., pp. 61-89, Raven Press (1985)).

In series [2] the test system is Leukotriene D4 induced respiratory constriction. Briefly: Leukotriene D4 induced respiratory constriction test. Type of series: in vivo. The following applies: p.o. 1 hr before i.v. LTD4; anesthetized Hartley male guinea pigs; respiratory inner pressure. On the procedure: Leukotriene D4 Induced Respiratory Constriction Test
Respiratory constriction was measured by modifying the method of Konzett and Rossler (Arch. Exp. Pathol. Pharmakol., 195, pp. 71-74 (1940)). Hartley male guinea pigs (400 to 500 g body weight, Nippon SLC Co.) were anesthetized with pentobarbital (50 mg/kg, s.c.), and a cannula was inserted into the trachea to carry out artificial ventilation with an artificial ventilator (manufactured by Harvard Co., Model 683). An inner pressure of the respiratory tract was measured by a differential pressure transducer (Nihon Koden, TP-603T) connected to the respiratory cannula and it is used as an index of respiratory constriction.
LTD4 (0.03, 0.06, 0.13, 0.25, 0.5, 1 and 2 μg/kg, Sigma Co.) was intravenously administered from a cannula inserted into the right jugular vein from a low dose with an interval of 5 minutes to cause a respiratory constriction reaction and an increased amount of a respiratory inner pressure was measured. Test compound was suspended in 0.5% sodium carboxymethyl cellulose aqueous solution, and orally administered 1 hour before administration of LTD4. Animals were fasted for 24 hours before administration of the Test compound.
A2=(Dose of Compound administered)/{(ED50 of group to which Compound was added)/(ED50 of control group)−1}

Where only a bound is given, the exact number is not on record here.

Consider `C[C@H](CSC1c2ccccc2COc2ccc(/C=C/c3ccc4cc(F)c(F)cc4n3)cc21)C(=O)[O-].[Na+]` (stereo partly drawn) [Example 43, Sodium 3-{[2-[(E)-2-(6,7-difluoro-2-quinolinyl)ethenyl]-6,11-dihydrodibenz[b,e]oxepin-11-yl]thio}-2-(S)-methyl-propionate], for which the melting point fell in the range of 193 to 216 °C. In series [1], the Ki was 0.126 nM. Further, the “A2 (dose of Test compound required for shifting two-times the LTD4 dose-reaction curve of control group to higher dose side)” value in series [2] was 1.3 µg/kg.
`O=C([O-])CCSC1c2cc(/C=C/c3ccc4cc(F)c(F)cc4n3)ccc2COc2ccccc21.[Na+]` (centres unmarked) [Example 54 (b), Sodium 3-{[9-[(E)-2-(6,7-difluoro-2-quinolinyl)ethenyl]-6,11-dihydrodibenz[b,e]oxepin-11-yl]thio}propionate]: the melting point was above 300 °C. In series [1], the Ki is 0.126 nM. Besides, the “A2 (dose of Test compound required for shifting two-times the LTD4 dose-reaction curve of control group to higher dose side)” value in series [2] was found to be 2.3 µg/kg.
As for `N#Cc1cccc2c1COc1ccc(/C=C/c3ccc4cc(F)c(F)cc4n3)cc1C2SCCC(=O)[O-].[Na+]` (centres unmarked) [Example 13 (b), Sodium 3-{[7-cyano-2-[(E)-2-(6,7-difluoro-2-quinolinyl)ethenyl]-6,11-dihydrodibenz[b,e]oxepin-11-yl]thio}propionate], the melting point lay within 179 to 182 °C. In addition, the Ki in series [1] was 0.631 nM. Further, in series [2], the “A2 (dose of Test compound required for shifting two-times the LTD4 dose-reaction curve of control group to higher dose side)” value is 7.8 µg/kg.
For `O=C([O-])CCSC1c2ccccc2COc2ccc(/C=C/c3ccc4c(F)cc(F)cc4n3)cc21.[Na+]` (centres unmarked) [Example 32 (b), Sodium 3-{[2-[(E)-2-(5,7-difluoro-2-quinolinyl)ethenyl]-6,11-dihydrodibenz[b,e]oxepin-11-yl]thio}propionate] the same measures were 210 to 213 °C, 0.794 nM and 9.4 µg/kg.
In the case of `C[C@@H](CSC1c2ccccc2COc2ccc(/C=C/c3ccc4ccc(Cl)cc4n3)cc21)C(=O)[O-].[Na+]` (stereo partly drawn) [Example 23, Sodium 3-{[2-[(E)-2-(7-chloro-2-quinolinyl)ethenyl]-6,11-dihydrodibenz[b,e]oxepin-11-yl]thio}-2-(R)-methylpropionate], the melting point fell in the range of 207 to 217 °C. For the same compound, the Ki in series [1] is 0.501 nM. Further, the “A2 (dose of Test compound required for shifting two-times the LTD4 dose-reaction curve of control group to higher dose side)” value in series [2] is 5.7 µg/kg.
Take `O=C([O-])CC1(CSC2c3ccccc3COc3ccc(/C=C/c4ccc5cc(F)c(F)cc5n4)cc32)CC1.[Na+]` (centres unmarked) [Example 7 (b), Sodium {1-[[2-[(E)-2-(6,7-difluoro-2-quinolinyl)ethenyl]-6,11-dihydrodibenz[b,e]oxepin-11-yl]thiomethyl]cyclopropyl}acetate]: the melting point fell in the range of 137 to 139 °C. Moreover, the Ki in series [1] is 0.2 nM. For the same compound, the “A2 (dose of Test compound required for shifting two-times the LTD4 dose-reaction curve of control group to higher dose side)” value in series [2] was found to be 3.5 µg/kg.
For `O=C([O-])CCSC1c2ccccc2CCc2ccc(/C=C/c3ccc4cc(F)c(F)cc4n3)cc21.[Na+]` (centres unmarked) [Example 40, Sodium 3-{[3-[(E)-2-(6,7-difluoro-2-quinolinyl)ethenyl]-10,11-dihydro-5H-dibenz[a,d]cyclohepten-5-yl]thio}propionate] the same measures were 179 to 182 °C, 0.794 nM and 8.8 µg/kg.
Consider `O=C(O)C(F)(F)F.O=C(O)CC1(CSC2c3cc(/C=C/c4ccc5cc(F)c(F)cc5n4)ccc3OCc3c(F)cccc32)CC1` (centres unmarked) [Example 3, {1-[[2-[(E)-2-(6,7-difluoro-2-quinolinyl)ethenyl]-7-fluoro-6,11-dihydrodibenz[b,e]oxepin-11-yl]thiomethyl]cyclopropyl}acetic acid trifluoroacetic acid salt], for which the melting point is 174 to 179 °C. Also, the Ki in series [1] is 0.158 nM. The “A2 (dose of Test compound required for shifting two-times the LTD4 dose-reaction curve of control group to higher dose side)” value in series [2] was 3.6 µg/kg.
`O=C([O-])CC1(CSC2c3ccccc3COc3ccc(/C=C/c4ccc5c(F)c(F)c(F)cc5n4)cc32)CC1.[Na+]` (centres unmarked) [Example 35 (b), Sodium {1-[[2-[(E)-2-(5,6,7-trifluoro-2-quinolinyl)ethenyl]-6,11-dihydrodibenz[b,e]oxepin-11-yl]thiomethyl]cyclopropyl}acetate] came in with a melting point of 195 to 198 °C. The Ki in series [1] was 0.398 nM. For the same compound, the “A2 (dose of Test compound required for shifting two-times the LTD4 dose-reaction curve of control group to higher dose side)” value in series [2] came out at 6.6 µg/kg.
For `C[C@@H](CSC1c2ccccc2COc2ccc(/C=C/c3ccc4ccc(F)cc4n3)cc21)C(=O)[O-].[Na+]` (stereo partly drawn) [Example 19, Sodium 3-{[2-[(E)-2-(7-fluoro-2-quinolinyl)ethenyl]-6,11-dihydrodibenz[b,e]oxepin-11-yl]thio}-2-(R)-methylpropionate] the same measures were 195 to 205 °C, 0.2 nM and 2.4 µg/kg.
`O=C([O-])CCSC1c2cc(/C=C/c3ccc4cc(F)c(F)cc4n3)ccc2OCc2c1cccc2C(F)(F)F.[Na+]` (centres unmarked) [Example 14, Sodium 3-{[2-[(E)-2-(6,7-difluoro-2-quinolinyl)ethenyl]-7-trifluoromethyl-6,11-dihydrodibenz[b,e]oxepin-11-yl]thio}propionate]: the Ki in series [1] is 0.631 nM. Moreover, the “A2 (dose of Test compound required for shifting two-times the LTD4 dose-reaction curve of control group to higher dose side)” value in series [2] came to 4.4 µg/kg.
Consider `CC(C)(CC(=O)O)SC1c2ccccc2COc2ccc(/C=C/c3ccc4cc(F)c(F)cc4n3)cc21` (centres unmarked) [Example 58, 3-{[2-[(E)-2-(6,7-difluoro-2-quinolinyl)ethenyl]-6,11-dihydrodibenz[b,e]oxepin-11-yl]thio}-3-methylbutanoic acid], for which, in series [1], the Ki was 0.501 nM. Besides, the “A2 (dose of Test compound required for shifting two-times the LTD4 dose-reaction curve of control group to higher dose side)” value in series [2] was determined as 6.4 µg/kg.
For `O=C([O-])CCSC1c2ccccc2COc2ccc(/C=C/c3ccc4cc(F)c(Cl)cc4n3)cc21.[Na+]` (centres unmarked) [Example 2 (b), Sodium 3-{[2-[(E)-2-(7-chloro-6-fluoro-2-quinolinyl)ethenyl]-6,11-dihydrodibenz[b,e]oxepin-11-yl]thio}propionate] the same measures were 0.316 nM and 1.7 µg/kg.
As for `O=C(O)CCSC1c2ccccc2COc2ccc(OCc3ccc4cc(F)c(Cl)cc4n3)cc21` (centres unmarked) [Compound A, 11-(2-carboxyethyl)thio-2-(7-chloro-6-fluoro-quinolin-2-yl)methoxy-6,11-dihydrodibenz[b,e]oxepine, reference compound], the Ki in series [1] was 0.316 nM. Further, the “A2 (dose of Test compound required for shifting two-times the LTD4 dose-reaction curve of control group to higher dose side)” value in series [2] stood at 16 µg/kg.

The values above are taken from patent publication US20030216571A1, “Tricyclic compounds” (priority 1999, published 2003).
